# Results reported in publication PMC3199286 (ACS chemical biology, 2011).
# How the values were obtained:
# PRMT1 [1] = settings: ref [15]–[17]; cited from earlier work
# PRMT1 [2] = molecular target: T1, PRMT1 (Homo sapiens, UniProt Q99873); assay: Active PRMT1 in MCF-7 nuclear extracts after estrogen stimulation; assay type: cell-based; settings: 10 nM E2, 5 minute time point
# PRMT1 [3] = molecular target: T1, PRMT1; assay: Active PRMT1 in MCF-7 cytoplasmic extracts after estrogen stimulation; assay type: cell-based
# T1 sequence (Q99873 whole entry): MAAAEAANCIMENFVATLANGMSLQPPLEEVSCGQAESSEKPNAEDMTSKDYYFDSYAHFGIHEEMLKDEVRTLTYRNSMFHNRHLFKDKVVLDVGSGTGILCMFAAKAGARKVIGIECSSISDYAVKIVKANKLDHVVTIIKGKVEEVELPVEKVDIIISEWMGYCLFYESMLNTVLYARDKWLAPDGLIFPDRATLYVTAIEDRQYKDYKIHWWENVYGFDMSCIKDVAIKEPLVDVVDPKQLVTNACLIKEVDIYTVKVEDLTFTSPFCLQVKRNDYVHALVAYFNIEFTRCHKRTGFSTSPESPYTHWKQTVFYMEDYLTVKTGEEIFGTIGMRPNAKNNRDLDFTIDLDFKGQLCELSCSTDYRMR
Substance,PRMT1 substrate quality (PRMT1 [1]),maximum reduction of active PRMT1 in nucleus (PRMT1 [2]) [fold],"increase of active PRMT1 in cytoplasm (PRMT1 [3]; 10 nM E2, 5 minutes after addition, MCF-7) [fold]","time of maximum active PRMT1 in cytoplasm (PRMT1 [3]; 10 nM E2, MCF-7) [min]","time of return of active cytoplasmic PRMT1 to basal levels (PRMT1 [3]; 10 nM E2, MCF-7)","total PRMT1 levels in cytosolic and nuclear extracts (loading control) after estrogen (PRMT1 [3]; 10 nM E2, MCF-7, 10% loading control, Figure 6A lower panel)"
"AcH4-21: peptide which consists of the first 21 amino acids of histone H4, highly efficient PRMT1 substrate",highly efficient PRMT1 substrate,–,–,–,–,–
estrogen,–,3,2.5,10,~ 15 minutes,remain constant
